Experiments:
Test in all cases: Eurofins kinase panel
Format in all cases: biochemical
Details in all cases: read-out: Inhibition rate (%)
ATR/ATRIP(h) = biological target: T1, ATR/ATRIP(h) (Homo sapiens, UniProt Q13535)
T1 construct: purchased Eurofins (KinaseProfiler)

ErbB2(h) = biological target: T2, ErbB2(h) (Homo sapiens, UniProt P04626)
T2 construct: purchased Eurofins (KinaseProfiler)

EphA4(h) = biological target: T3, EphA4(h) (Homo sapiens, UniProt P54764)
T3 construct: purchased Eurofins (KinaseProfiler)
T3 sequence (P54764 20-986): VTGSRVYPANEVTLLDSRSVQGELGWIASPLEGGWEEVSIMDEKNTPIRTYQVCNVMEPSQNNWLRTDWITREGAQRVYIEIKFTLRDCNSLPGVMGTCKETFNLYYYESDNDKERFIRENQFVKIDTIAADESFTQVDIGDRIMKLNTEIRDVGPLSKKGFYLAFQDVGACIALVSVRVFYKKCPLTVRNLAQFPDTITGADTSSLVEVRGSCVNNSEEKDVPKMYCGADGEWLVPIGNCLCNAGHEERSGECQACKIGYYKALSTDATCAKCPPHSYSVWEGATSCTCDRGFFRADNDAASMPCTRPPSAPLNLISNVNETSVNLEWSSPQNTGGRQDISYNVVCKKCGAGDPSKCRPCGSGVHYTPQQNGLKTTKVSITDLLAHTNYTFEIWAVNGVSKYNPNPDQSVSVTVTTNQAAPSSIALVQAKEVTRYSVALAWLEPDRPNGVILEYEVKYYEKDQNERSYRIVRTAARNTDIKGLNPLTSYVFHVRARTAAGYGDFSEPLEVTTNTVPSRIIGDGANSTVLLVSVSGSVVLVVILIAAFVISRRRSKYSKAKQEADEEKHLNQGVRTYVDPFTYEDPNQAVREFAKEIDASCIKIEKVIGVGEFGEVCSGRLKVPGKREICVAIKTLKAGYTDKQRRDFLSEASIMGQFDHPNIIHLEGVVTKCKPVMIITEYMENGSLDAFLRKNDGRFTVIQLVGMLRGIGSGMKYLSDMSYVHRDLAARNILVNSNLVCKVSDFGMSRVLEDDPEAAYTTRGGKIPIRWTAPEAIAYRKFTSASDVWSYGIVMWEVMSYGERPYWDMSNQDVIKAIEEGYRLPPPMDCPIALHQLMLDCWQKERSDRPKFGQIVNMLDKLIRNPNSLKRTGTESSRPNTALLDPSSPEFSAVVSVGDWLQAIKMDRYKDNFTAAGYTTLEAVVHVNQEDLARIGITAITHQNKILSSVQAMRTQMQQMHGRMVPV

MAPK1(h) = biological target: T4, MAPK1(h) (Homo sapiens, UniProt P27361)
T4 construct: purchased Eurofins (KinaseProfiler)
T4 sequence (P27361 whole entry): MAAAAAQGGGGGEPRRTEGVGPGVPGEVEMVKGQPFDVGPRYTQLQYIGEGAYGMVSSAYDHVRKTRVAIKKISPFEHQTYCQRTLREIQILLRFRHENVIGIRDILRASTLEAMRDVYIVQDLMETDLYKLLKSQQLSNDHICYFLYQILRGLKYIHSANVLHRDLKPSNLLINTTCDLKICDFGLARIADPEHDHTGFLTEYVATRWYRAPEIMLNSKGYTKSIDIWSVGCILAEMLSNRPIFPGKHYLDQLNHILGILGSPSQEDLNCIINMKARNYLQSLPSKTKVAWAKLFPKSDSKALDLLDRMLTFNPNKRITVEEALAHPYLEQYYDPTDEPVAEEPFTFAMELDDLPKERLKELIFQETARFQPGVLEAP

NEK4(h) = biological target: T5, NEK4(h) (Homo sapiens, UniProt P51957)
T5 construct: purchased Eurofins (KinaseProfiler)
T5 sequence (P51957 whole entry): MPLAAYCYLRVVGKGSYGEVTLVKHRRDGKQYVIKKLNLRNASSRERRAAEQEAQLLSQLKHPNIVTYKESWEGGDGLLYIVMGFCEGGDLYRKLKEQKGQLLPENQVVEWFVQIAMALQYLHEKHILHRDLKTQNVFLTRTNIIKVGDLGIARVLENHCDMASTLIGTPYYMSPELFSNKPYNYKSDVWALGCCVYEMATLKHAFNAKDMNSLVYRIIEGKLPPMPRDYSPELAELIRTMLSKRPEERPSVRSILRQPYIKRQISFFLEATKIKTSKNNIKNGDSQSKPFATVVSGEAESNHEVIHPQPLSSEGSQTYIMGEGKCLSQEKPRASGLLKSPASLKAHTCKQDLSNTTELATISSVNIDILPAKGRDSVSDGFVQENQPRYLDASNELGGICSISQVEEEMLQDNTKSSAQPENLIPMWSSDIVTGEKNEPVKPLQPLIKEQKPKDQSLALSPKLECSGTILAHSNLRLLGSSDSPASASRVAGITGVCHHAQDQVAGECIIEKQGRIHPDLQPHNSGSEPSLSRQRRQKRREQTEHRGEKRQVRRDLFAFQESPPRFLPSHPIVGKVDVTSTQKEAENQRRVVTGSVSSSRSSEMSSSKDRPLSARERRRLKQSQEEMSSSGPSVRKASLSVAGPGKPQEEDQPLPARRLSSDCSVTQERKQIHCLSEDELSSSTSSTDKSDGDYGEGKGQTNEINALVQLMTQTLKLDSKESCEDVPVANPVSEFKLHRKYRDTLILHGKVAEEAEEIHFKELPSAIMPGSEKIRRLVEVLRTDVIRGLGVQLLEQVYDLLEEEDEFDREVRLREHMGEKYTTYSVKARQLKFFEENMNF

Blk(h) = biological target: T6, Blk(h) (Homo sapiens, UniProt P51451)
T6 construct: purchased Eurofins (KinaseProfiler)
T6 sequence (P51451 whole entry): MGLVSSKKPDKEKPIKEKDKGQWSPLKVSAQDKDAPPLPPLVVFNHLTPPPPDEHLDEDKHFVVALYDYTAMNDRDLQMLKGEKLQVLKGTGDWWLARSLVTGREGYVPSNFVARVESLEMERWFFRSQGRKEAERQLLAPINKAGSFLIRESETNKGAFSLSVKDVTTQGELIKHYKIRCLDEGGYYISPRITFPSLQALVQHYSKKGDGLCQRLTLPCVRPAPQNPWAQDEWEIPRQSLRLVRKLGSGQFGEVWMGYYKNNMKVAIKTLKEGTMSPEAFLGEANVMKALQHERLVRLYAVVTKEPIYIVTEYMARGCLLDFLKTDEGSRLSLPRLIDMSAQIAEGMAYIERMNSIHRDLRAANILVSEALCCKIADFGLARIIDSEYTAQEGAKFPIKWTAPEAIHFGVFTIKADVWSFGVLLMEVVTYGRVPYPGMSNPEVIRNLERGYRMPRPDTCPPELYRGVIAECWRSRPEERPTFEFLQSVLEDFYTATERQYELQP

Flt3(D835Y)(h) = biological target: T7, Flt3(D835Y)(h) (Homo sapiens, UniProt P36888, D835Y)
T7 construct: purchased Eurofins (KinaseProfiler)
T7 sequence (P36888 27-993 D835Y): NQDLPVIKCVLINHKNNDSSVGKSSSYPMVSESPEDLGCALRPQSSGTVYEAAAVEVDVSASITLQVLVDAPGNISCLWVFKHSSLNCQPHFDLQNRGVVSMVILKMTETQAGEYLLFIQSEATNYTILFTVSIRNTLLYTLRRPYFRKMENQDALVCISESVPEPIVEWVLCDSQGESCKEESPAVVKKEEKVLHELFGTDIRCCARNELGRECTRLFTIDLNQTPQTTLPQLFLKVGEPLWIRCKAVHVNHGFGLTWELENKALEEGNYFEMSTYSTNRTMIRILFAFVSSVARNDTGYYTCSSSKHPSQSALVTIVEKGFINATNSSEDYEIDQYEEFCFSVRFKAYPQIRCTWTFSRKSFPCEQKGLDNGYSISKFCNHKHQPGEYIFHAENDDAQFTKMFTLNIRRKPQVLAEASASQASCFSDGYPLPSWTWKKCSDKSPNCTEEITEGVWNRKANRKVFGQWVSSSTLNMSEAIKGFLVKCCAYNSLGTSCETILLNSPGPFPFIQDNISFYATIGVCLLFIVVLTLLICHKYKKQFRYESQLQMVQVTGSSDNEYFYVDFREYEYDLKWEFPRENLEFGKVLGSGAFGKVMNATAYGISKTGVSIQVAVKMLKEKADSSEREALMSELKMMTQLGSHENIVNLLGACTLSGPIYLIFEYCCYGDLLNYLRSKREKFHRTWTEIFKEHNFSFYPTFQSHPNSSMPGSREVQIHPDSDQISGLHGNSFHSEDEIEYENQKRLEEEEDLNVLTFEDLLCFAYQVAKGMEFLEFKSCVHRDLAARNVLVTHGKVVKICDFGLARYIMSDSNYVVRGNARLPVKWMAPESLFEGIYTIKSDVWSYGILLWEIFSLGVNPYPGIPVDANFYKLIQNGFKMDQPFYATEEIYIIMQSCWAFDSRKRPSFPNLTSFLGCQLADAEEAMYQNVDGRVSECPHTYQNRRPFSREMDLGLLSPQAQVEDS

TGFBR1(h) = biological target: T8, TGFBR1(h) (Homo sapiens, UniProt P36897)
T8 construct: purchased Eurofins (KinaseProfiler)
T8 sequence (P36897 34-503): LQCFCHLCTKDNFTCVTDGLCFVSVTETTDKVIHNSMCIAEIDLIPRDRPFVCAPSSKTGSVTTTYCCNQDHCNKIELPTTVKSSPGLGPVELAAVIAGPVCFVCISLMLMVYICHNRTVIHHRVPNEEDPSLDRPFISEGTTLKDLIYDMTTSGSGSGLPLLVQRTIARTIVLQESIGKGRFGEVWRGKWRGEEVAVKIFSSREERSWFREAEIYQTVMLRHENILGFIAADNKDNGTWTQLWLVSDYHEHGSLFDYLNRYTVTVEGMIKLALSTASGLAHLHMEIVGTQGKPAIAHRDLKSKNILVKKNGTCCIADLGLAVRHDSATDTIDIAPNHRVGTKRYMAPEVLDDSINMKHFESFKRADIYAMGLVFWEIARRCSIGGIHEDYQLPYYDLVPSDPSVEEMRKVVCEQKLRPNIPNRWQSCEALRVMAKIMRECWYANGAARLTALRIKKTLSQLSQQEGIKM

TSSK1(h) = biological target: T9, TSSK1(h) (Homo sapiens, UniProt Q9BXA7)
T9 construct: purchased Eurofins (KinaseProfiler)
T9 sequence (Q9BXA7 1-367): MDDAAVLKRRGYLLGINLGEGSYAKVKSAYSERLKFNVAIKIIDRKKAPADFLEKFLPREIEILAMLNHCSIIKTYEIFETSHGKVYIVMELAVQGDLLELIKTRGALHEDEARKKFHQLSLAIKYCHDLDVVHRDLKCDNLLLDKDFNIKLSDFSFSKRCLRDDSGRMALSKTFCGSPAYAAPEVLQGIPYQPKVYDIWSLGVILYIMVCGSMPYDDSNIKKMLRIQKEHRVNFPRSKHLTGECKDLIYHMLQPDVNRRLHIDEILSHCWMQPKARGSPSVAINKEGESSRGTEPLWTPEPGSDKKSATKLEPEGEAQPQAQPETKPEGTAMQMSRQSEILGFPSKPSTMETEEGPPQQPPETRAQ

MSK2(h) = biological target: T10, MSK2(h) (Homo sapiens, UniProt O75676)
T10 construct: purchased Eurofins (KinaseProfiler)
T10 sequence (O75676 whole entry): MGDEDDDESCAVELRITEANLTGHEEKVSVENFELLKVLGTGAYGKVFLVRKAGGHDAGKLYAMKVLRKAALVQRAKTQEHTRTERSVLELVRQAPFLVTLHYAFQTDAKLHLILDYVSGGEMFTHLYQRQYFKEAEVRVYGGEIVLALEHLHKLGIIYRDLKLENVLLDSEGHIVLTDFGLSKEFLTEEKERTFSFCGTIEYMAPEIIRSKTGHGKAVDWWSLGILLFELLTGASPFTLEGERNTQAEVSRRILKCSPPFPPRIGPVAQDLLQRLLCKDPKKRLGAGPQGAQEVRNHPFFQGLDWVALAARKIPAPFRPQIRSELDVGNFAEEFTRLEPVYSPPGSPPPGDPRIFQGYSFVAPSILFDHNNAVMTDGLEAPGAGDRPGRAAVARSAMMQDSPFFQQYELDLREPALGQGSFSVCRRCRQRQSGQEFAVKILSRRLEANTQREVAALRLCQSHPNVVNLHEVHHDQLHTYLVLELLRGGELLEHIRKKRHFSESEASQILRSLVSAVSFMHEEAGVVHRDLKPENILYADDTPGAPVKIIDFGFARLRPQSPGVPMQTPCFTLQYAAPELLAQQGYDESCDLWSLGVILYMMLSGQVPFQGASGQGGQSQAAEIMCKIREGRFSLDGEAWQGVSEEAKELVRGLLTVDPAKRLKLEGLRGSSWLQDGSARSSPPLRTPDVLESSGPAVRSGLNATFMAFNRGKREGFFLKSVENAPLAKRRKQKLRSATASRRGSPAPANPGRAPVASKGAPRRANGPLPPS

T2 sequence (P04626 23-1255): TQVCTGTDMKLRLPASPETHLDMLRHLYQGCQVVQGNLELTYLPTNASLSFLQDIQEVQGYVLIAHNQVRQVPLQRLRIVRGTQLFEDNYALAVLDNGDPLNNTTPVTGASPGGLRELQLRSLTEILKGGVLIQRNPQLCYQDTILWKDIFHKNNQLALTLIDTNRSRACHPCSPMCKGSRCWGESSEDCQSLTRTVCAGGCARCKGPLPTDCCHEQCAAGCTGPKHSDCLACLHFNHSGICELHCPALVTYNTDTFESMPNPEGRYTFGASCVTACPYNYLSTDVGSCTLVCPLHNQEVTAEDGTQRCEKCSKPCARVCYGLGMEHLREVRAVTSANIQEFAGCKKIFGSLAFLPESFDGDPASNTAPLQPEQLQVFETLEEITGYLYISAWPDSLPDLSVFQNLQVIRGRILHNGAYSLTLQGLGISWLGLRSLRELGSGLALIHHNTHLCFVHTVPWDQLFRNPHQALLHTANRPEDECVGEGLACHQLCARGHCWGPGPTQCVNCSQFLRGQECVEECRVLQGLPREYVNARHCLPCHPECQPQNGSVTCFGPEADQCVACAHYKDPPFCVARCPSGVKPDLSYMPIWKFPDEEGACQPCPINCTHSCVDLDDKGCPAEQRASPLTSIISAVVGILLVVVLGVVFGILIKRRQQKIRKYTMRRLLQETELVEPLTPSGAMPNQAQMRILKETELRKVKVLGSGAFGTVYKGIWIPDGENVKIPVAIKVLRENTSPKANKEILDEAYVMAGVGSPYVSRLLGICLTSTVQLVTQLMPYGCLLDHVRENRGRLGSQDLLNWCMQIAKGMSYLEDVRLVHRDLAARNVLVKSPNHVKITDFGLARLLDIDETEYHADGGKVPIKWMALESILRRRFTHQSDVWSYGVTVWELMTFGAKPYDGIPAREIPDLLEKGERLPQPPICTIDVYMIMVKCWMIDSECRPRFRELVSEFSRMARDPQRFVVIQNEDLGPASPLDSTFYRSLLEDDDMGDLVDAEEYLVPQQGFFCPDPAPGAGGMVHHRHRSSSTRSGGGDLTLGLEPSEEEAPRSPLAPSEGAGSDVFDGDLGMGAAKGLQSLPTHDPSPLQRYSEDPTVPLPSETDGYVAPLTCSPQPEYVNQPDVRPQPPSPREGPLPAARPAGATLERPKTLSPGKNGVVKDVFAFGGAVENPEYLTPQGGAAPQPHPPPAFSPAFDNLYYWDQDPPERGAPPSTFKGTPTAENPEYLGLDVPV

COc1cc(OC)c(Cl)c(-c2ccc3c(NC(=O)c4ccc(N5CCNC(C)(C)C5)cc4)n[nH]c3n2)c1Cl [3D185] was tested, and the inhibition at 0.01 µM (ATR/ATRIP(h); 10 nM) was -4%, the inhibition at 0.1 µM (ATR/ATRIP(h); 100 nM) was 10% and the inhibition at 1 µM (ATR/ATRIP(h); 1000 nM) was 6%. It also gave an inhibition at 0.01 µM (ErbB2(h); 10 nM) of -7%, an inhibition at 0.1 µM (ErbB2(h); 100 nM) of -11% and an inhibition at 1 µM (ErbB2(h); 1000 nM) of -11%. It also gave an inhibition at 0.01 µM (EphA4(h); 10 nM) of 14%, an inhibition at 0.1 µM (EphA4(h); 100 nM) of 5% and an inhibition at 1 µM (EphA4(h); 1000 nM) of 13%. For the same compound, the inhibition at 0.01 µM (MAPK1(h); 10 nM) was -5%, the inhibition at 0.1 µM (MAPK1(h); 100 nM) was -6% and the inhibition at 1 µM (MAPK1(h); 1000 nM) was 0%. The inhibition at 0.01 µM (NEK4(h); 10 nM) was 16%, the inhibition at 0.1 µM (NEK4(h); 100 nM) was 15% and the inhibition at 1 µM (NEK4(h); 1000 nM) was 74%. The inhibition at 0.01 µM (Blk(h); 10 nM) was -18%, the inhibition at 0.1 µM (Blk(h); 100 nM) was 16% and the inhibition at 1 µM (Blk(h); 1000 nM) was 88%. For the same compound, the inhibition at 0.01 µM (Flt3(D835Y)(h); 10 nM) was -1%, the inhibition at 0.1 µM (Flt3(D835Y)(h); 100 nM) was -6% and the inhibition at 1 µM (Flt3(D835Y)(h); 1000 nM) was 5%. The inhibition at 0.01 µM (TGFBR1(h); 10 nM) was -15%, the inhibition at 0.1 µM (TGFBR1(h); 100 nM) was -19% and the inhibition at 1 µM (TGFBR1(h); 1000 nM) was -17%. For the same compound, the inhibition at 0.01 µM (TSSK1(h); 10 nM) was 5%, the inhibition at 0.1 µM (TSSK1(h); 100 nM) was 2% and the inhibition at 1 µM (TSSK1(h); 1000 nM) was 13%. For the same compound, the inhibition at 0.01 µM (MSK2(h); 10 nM) was 10%, the inhibition at 0.1 µM (MSK2(h); 100 nM) was 25% and the inhibition at 1 µM (MSK2(h); 1000 nM) was 49%.
